{"source": "paper PMC9468151", "about": "“Identification of a binding site on soluble RANKL that can be targeted to inhibit soluble RANK-RANKL interactions and treat osteoporosis” (Nature Communications, 2022)", "key": {"sRANKL trimerization": {"target": "T1, sRANKL trimerization (Rattus norvegicus, UniProt Q9ESE2, D175N)", "T1 construct": "(1) sRANKL (rat 159-318 aa); His6-sumo (N, cleaved yes); made in house; host or cells: Escherichia coli BL21 (DE3)", "assay": "Cross-link assay of sRANKL trimerization", "format": "biochemical", "excerpt": "the effect of S3-15 on RANKL self-trimerization. […]\ncontrol), S3 and S3-15 -treated sRANKL samples. The sRANKL dimer and monomer […]\ntrimerization process in vitro. […]\nline 18 and, Figure S4L of the manuscript. […]\nconvinced that our sRANKL selective inhibitors does attenuate RANKL-RANK interaction without affect RANKL trimerization.”.\n3. Does S3-15 affect the binding of sRANKL and mRANKL to OPG, an important\nResponse: To answer this question, we have performed a number of experiments. The pull-down assay was conducted to explore the effects of S3-15 on sRANKL and OPG […]\nsRANKL to OPG at high concentration (10 and 1 μM) but not low concentration (0.3 μM). Three more experiments on mRANKLs have conducted to study if S3-15 affects the binding of mRANKL to OPG. Two of the experiments are on human and mouse mRANKL expressed in 293T cell, the other is on the mRANKL expressed in MC3T3-E1 osteogenic precursor cells. […]\naffect the binding of mRANKL to OPG at concentration of 1 μM. […]\nbeen documented in the page 11 at line 21 and Figure S4M-S4P of the manuscript.\nHere is the paragraph we have added to the manuscript: […]"}, "sRANKL": {"target": "T2, sRANKL (Rattus norvegicus, UniProt Q9ESE2, D175N)", "T2 construct": "(1) sRANKL (rat 159-318 aa); His6-sumo (N, cleaved yes); made in house; host or cells: Escherichia coli BL21 (DE3)", "T2 sequence (Q9ESE2 159-318 D175N)": "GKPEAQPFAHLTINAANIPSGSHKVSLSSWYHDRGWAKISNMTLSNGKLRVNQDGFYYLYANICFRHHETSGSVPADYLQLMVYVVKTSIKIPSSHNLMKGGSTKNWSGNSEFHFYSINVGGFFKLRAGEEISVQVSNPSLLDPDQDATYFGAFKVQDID", "assay": "Isothermal titration calorimetry (ITC) with sRANKL", "format": "binding", "conditions": "for Kd: 25 °C, PBS 0.8% DMSO", "procedure": "(§1) ITC titrations were performed on the MicroCal iTC200 system at 25 °C[55]. Working stocks of compound S3-15 were prepared in 100% DMSO at 50 mM and then diluted to 500 μM at PBS with final DMSO concentration at 0.8% (v/v). PBS with 0.8% DMSO was used as ITC buffer. Purified sRANKL or L-RANKL protein was buffer exchanged into same ITC buffer using a Millipore spin column. S3-15 at 500 μM was loaded into a syringe and protein was loaded into an isothermal calorimeter cell. During titration, S3-15 in the […] was injected (2 μL per injection, 25 injections in total, and 180 s between each injection) regularly from a rotating syringe into protein solution in the isothermal calorimeter cell. The sample cell was stirred at 385 rpm. Reference cell power was set to 5 μcal/s. Control experiments were conducted under the same conditions using buffer solution instead of S3-15. Data were analyzed using a one-site binding model in Origin 7.1 software for ITC version 7.0 (MicroCal). The dissociation constant, KD, was calculated according to equation KD = 1/K. All other parameters, K ([…]), N (varying the stoichiometry), ΔH (enthalpy of the reaction), and ΔG ([…] of the reaction) were determined from the titration data."}, "[1]": {"target": "T3, binary-RANKL (L-RANKL, mRANKL mimic) (Rattus norvegicus, UniProt Q9ESE2, D175N)", "T3 construct": "(3) mRANKL (sRANKL-GSGS-sRANKL, rat 159-318 aa); His6-sumo (N); made in house; host or cells: Escherichia coli BL21 (DE3)", "T3 sequence (Q9ESE2 with tags, fused parts or gaps D175N)": "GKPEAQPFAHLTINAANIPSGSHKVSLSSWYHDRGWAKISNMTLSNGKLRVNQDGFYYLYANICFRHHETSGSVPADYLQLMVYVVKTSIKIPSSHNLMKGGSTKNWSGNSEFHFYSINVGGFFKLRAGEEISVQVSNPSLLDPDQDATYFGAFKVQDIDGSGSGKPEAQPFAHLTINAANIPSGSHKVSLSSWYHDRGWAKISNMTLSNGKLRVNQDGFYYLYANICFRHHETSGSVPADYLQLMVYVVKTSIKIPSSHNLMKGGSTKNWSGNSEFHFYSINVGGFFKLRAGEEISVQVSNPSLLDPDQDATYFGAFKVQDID", "assay": "Isothermal titration calorimetry (ITC) with binary-RANKL", "format": "binding", "conditions": "25 °C, PBS 0.8% DMSO; read-out: ITC KD with binary-RANKL (printed +mRANKL in Fig. 3a)", "procedure": "as §1"}, "[2]": {"test_system": "human sRANKL and human OPG", "assay": "In vitro pull-down assay of sRANKL binding to OPG", "procedure": "To evaluate whether S3-15 affects the binding of sRANKL or mRANKL to OPG, we did the pull-down assay.\nsRANKL-OPG: 200 ng human sRANKL with his-sumo tag was incubated with Ni gel at 4 °C for 10 min. Then the Ni gel was washed with PBS for 3 times. 500 μL PBS that contains 100 ng Fc tag human OPG. Then S3-15 was treated in different concentration (0, 10, 1 and 0.3 μM). The mixtures were incubating at 4 °C for 30 min. Washed with PBS for 3 times. 500 μL 1% Triton X-100 in PBS was then added at 4 °C. The concentration of OPG was tested by OPG ELISA kit (USCN, China)."}, "OVX rats": {"test_system": "OVX rats", "assay": "Serum biochemical markers determination", "format": "in vivo, rat", "set-up": "TG / ALT / AST / ALP / GLU / TC / Ca / TBA / TBIL / BUN / CREA: unit not given here", "excerpt": "After treating with S3-15 for 12 weeks, rat serum was harvested and analyzed routine blood biochemical markers, including calcium (Ca), phosphorus (P), total cholesterol (TC), triglyceride (TG), glucose (Glu), aspartate aminotransferase (AST), alanine aminotransferase (ALT), alkaline phosphatase (ALP), total bile acid (TBIL), total bilirubin (TBA), creatinine (CREA), urea nitrogen (BUN). Ca, P, AST, ALT, ALP, CREA, and BUN were purchased from Wako Pure Chemical, Japan; Glu,TC, TG, TBIL, and TBA were purchased from Kehua Bio-engineering Co.LTD, China. Routine blood biochemical markers were examined with a Hitachi chemistry automated analyzer (Hitachi 7020, Japan) according to manufacturer’s instruction."}, "[3]": {"conditions": "serum, OVX rats, individual animals"}}, "note": "Values joined by “and” are separate entries in the source; they are usually repeats but may differ in a detail not shown here. Identical values can stand only once. Like-named read-outs stand apart in the source and are kept apart here."}
{"smiles": "CCOC(=O)c1sc(NC(=O)/C(=N/Nc2ccccc2C(=O)O)C(C)=O)nc1C", "note": "[S3, (E)-2-(2-(1-((5-(ethoxycarbonyl)-4-methylthiazol-2-yl)amino)-1,3-dioxobutan-2-ylidene) hydrazinyl) benzoic acid]", "values": [{"measurement": "effect on trimerization of sRANKL", "setting": "sRANKL trimerization", "result": "cannot affect"}]}
{"smiles": "CCOC(=O)c1sc(NC(=O)/C(=N/Nc2ccc(O)cc2C(=O)O)C(C)=O)nc1C", "note": "[S3-05]", "values": [{"measurement": "Kd", "setting": "sRANKL", "result": 6.58, "unit": "µM"}]}
{"smiles": "CC(=O)/C(=N\\Nc1ccccc1C(=O)O)C(=O)Nc1ccccn1", "note": "[S3-15]", "values": [{"measurement": "Kd", "setting": "[1]", "result": 124, "unit": "µM"}, {"measurement": "sRANKL-OPG binding signal (fig. S4m)", "setting": "[2]", "result": "0.6462 and 0.65 and 0.761"}, {"measurement": "sRANKL and OPG binding", "setting": "[2]; 0.3 μM", "result": "cannot affects"}, {"measurement": "sRANKL-OPG binding signal (fig. S4m)", "setting": "[2]; 0.3", "result": "0.7746 and 0.9001 and 1.2775"}, {"measurement": "sRANKL and OPG binding", "setting": "[2]; 10 and 1 μM", "result": "significantly suppressed"}, {"measurement": "organ toxicity / routine blood examination", "setting": "OVX rats; rats, 12 weeks treatment", "result": "no organ toxicity in vivo"}, {"measurement": "ALP", "setting": "OVX rats; [3]", "result": "35 and 77 and 34 and 39 and 60 and 23 and 42 and 48 and 49"}, {"measurement": "ALT", "setting": "OVX rats; [3]", "result": "29 and 34 and 37 and 33 and 38 and 25 and 28 and 32 and 39"}, {"measurement": "AST", "setting": "OVX rats; [3]", "result": "82 and 90 and 88 and 109 and 96 and 114 and 85 and 87 and 95"}, {"measurement": "BUN", "setting": "OVX rats; [3]", "result": "5.99 and 5.28 and 6.41 and 6.31 and 5.6 and 5.72 and 5.71 and 5.18 and 6"}, {"measurement": "CREA", "setting": "OVX rats; [3]", "result": "58.7 and 57.9 and 57 and 66.1 and 49.8 and 56.6 and 56.8 and 65.7 and 60.7"}, {"measurement": "Ca", "setting": "OVX rats; [3]", "result": "2.46 and 2.39 and 2.41 and 2.43 and 2.15 and 2.33 and 2.34"}, {"measurement": "GLU", "setting": "OVX rats; [3]", "result": "10.2096 and 9.028 and 12.7431 and 8.981 and 13.9764 and 7.763 and 10.2611 and 9.122 and 11.2914"}, {"measurement": "TBA", "setting": "OVX rats; [3]", "result": "26.48 and 20.71 and 36.69 and 15.65 and 15.57 and 21.76 and 21.4 and 18.86 and 18.33"}, {"measurement": "TBIL", "setting": "OVX rats; [3]", "result": "1.84 and 1.07 and 1.06 and 1.28 and 0.95 and 0.98 and 0.77 and 0.97 and 0.78"}, {"measurement": "TC", "setting": "OVX rats; [3]", "result": "2.99 and 2.55 and 2.35 and 2.13 and 2.5 and 2.24 and 2.36 and 2.45"}, {"measurement": "TG", "setting": "OVX rats; [3]", "result": "1.05 and 0.75 and 0.49 and 0.31 and 0.47 and 0.65 and 0.46 and 0.64"}, {"measurement": "Kd", "setting": "sRANKL", "result": 5.78, "unit": "µM"}, {"measurement": "SI (sRANKL over binary-RANKL)", "setting": "sRANKL; ratio of ITC KD", "result": 21}, {"measurement": "effect on trimerization of sRANKL", "setting": "sRANKL trimerization", "result": "cannot affect the trimerization of sRANKL"}]}
